Target: Integrin alpha-5/beta-1 (Homo sapiens, UniProt P05556+P08648)
Assay: Cell Adhesion Assay: Evaluation of cell attachment to extracellular matrix proteins was performed as previously described by Yokosaki et al, J. Biol. Chem., 271: (39): 24144-24150 (1996). Briefly, wells of non-tissue culture-treated polystyrene 96-well flat-bottom microtiter plates (Linbro/Titertek, Flow Laboratories, McLean, Va.) were coated by incubation with 100 μl of each substrate in PBS at 37° C. for 1 hour. 96-well flat-bottomed tissue culture plates were coated with human plasma fibronectin for 1 hour at 37° C. After incubation, wells were washed with PBS, then blocked with 1% bovine serum albumin (BSA) for one hour. Control wells were filled with 1% BSA. SW480 cells were detached using 10 mM EDTA and resuspended in serum-free DMEM. For blocking experiments, cells were incubated with 10 μg/ml of the antibody for 15 minutes at 4° C. before plating. The plates were centrifuged at 10 g for 5 minutes before incubation for 1 hour at 37° C. in humidified 5% CO2. Nonadherent cells were removed by centrifugation (top side down) at 10 g for 5 minutes. Attached cells were stained with 0.5% crystal violet, and the wells were washed with PBS. The relative number of cells in each well was evaluated after solubilization in 40 μl of 2% Triton X-100 by measuring absorbance at 595 nm in a microplate reader. All determinations were carried out in triplicate.

Chain of Integrin alpha-5/beta-1 (P05556 21-798 limits assumed): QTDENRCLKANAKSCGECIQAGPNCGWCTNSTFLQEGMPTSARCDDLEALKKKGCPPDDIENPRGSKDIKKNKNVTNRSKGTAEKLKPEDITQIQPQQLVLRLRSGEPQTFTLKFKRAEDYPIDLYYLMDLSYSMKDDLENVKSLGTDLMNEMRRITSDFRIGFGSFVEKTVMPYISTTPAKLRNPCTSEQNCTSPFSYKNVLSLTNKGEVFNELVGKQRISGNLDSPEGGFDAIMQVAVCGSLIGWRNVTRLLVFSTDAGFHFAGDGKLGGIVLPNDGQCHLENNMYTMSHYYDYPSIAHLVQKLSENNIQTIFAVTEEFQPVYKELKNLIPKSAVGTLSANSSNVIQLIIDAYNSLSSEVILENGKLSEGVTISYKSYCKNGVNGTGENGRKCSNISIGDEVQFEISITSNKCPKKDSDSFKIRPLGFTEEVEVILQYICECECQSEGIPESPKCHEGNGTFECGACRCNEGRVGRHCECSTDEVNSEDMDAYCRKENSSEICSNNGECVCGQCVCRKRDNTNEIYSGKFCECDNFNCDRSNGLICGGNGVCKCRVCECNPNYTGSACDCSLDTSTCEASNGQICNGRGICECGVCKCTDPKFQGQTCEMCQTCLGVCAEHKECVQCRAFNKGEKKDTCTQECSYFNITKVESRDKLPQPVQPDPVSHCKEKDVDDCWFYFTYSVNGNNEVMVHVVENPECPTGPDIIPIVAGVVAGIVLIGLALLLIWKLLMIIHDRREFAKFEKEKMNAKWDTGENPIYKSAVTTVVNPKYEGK
Chain of Integrin alpha-5/beta-1 (P08648 42-894 limits assumed): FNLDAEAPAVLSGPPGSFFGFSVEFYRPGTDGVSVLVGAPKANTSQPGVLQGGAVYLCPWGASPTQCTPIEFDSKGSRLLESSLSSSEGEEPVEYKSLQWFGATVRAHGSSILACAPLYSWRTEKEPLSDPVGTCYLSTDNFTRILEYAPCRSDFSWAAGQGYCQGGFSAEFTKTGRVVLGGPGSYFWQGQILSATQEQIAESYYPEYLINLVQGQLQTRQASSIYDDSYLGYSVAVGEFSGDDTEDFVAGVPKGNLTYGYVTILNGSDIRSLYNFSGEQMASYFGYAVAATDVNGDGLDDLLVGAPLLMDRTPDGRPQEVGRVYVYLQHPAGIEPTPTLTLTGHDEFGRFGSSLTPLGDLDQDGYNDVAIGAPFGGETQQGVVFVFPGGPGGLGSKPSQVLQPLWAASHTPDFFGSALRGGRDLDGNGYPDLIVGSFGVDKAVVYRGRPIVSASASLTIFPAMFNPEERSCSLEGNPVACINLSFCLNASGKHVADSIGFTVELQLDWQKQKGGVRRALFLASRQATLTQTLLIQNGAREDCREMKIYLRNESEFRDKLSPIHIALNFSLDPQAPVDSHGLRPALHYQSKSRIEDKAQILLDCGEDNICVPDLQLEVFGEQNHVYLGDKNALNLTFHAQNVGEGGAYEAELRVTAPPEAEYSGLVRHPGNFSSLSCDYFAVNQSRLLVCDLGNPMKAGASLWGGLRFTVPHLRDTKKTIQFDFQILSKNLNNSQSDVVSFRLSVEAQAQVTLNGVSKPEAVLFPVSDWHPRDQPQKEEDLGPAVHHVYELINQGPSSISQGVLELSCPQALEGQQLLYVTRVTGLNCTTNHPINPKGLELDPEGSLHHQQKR
Chain of Integrin alpha-5/beta-1 (P08648 895-1049 limits assumed): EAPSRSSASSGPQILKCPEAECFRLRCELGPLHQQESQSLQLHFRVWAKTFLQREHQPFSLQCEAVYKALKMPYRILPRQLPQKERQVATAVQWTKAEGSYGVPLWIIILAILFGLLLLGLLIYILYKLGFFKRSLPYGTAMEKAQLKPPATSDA

IC50 | SMILES
< 0.1 µM | O=C(CNC(=O)c1cccc(NC2=NCC(O)CN2)c1)NC[C@H](NC(=O)c1c(Cl)cc(-c2ccccc2)cc1Cl)C(=O)O (stereo partly drawn)
< 0.1 µM | N#Cc1cc(NC(=N)N)cc(C(=O)NCC(=O)NC[C@H](NC(=O)c2c(Cl)cc(-c3ccccc3)cc2Cl)C(=O)O)c1
< 0.1 µM | O=C(CNC(=O)c1cccc(NC2=NCCCO2)c1)NC[C@H](NC(=O)c1c(Cl)cc(-c2ccccc2)cc1Cl)C(=O)O
